{"source": "patent EP1274675B1", "about": "“COMPOUNDS, COMPOSITIONS AND METHODS FOR PREVENTING NEURODEGENERATION IN ACUTE AND CHRONIC INJURIES IN THE CENTRAL NERVOUS SYSTEM” (Neurotech Co., Ltd., priority 2000, dated 2001)", "key": {"[1]": {"system": "Mouse cortical cell cultures", "assay": "Zn^2+ neurotoxicity in cortical cell cultures (LDH release)", "assay_type": "cell-based", "conditions": "for neuroprotective effect against Zn^2+ neurotoxicity relative to BAS: comparison in words", "method": "(§1) Primary cortical cell cultures from embryonic mice were prepared and used to examine neuroprotective action of compounds. Mouse cortical cell culture system has been extensively used to study mechanisms and pharmacological intervention of neuronal death in neurological diseases. In brief, mouse cerebral cortices were removed from brains of the 15 day-old-fetal mice, in accordance with a protocol approved by our institutional animal care committee. […] After 7 days in vitro (DIV 7), cultures were shifted into a growth medium identical to the plating medium but lacking fetal serum. At DIV 7 - 9, […] cytosine arabinofuranoside was included to halt overgrowth of glia. Mixed cultures of neurons and glia were then fed twice a week."}, "[2]": {"system": "Mouse cortical cell cultures", "assay": "NMDA neurotoxicity in cortical cell cultures (LDH release)", "assay_type": "cell-based", "conditions": "for neuroprotective effect against NMDA neurotoxicity relative to BAS: comparison in words", "method": "as §1"}, "[3]": {"system": "Mouse cortical cell cultures", "assay": "Fe^2+-induced free radical neurotoxicity in cortical cell cultures (LDH release)", "assay_type": "cell-based", "conditions": "for prevention of free radical neurotoxicity relative to BAS / protection against free radical neurotoxicity relative to NBAS: comparison in words; for effect on Fe^2+-induced free radical neurotoxicity: 10 µM compound; for effect on Fe^2+-induced free radical neurotoxicity / effect on Fe^2+-induced neuronal death: continuous 50 µM Fe^2+; for effect on Fe^2+-induced neuronal death: 1 µM compound", "method": "as §1"}, "[4]": {"assay": "DPPH anti-oxidant assay (decrease in DPPH absorption at 517 nm)", "assay_type": "biochemical", "conditions": "mean ± SEM, n = 3, DPPH alone 1.2", "method": "To examine anti-oxidant effect, DPPH (2,2-diphenyl-1-picryl-hydrazyl radical), a stable free radical, was dissolved in ethanol to make a 100 µM solution. A compound was reacted with DPPH or ethanol. After incubation for 30 min, relative decrease in DPPH absorption at 517 nm was measured by a spectrophotometer."}, "[5]": {"conditions": "300 µM compound, 300 µM NMDA for 10 min, in words"}, "[6]": {"conditions": "100 µM compound reacted with 100 uM DPPH in ethanol for 30 min"}, "[7]": {"conditions": "10 µM compound reacted with 100 uM DPPH in ethanol for 30 min"}, "[8]": {"conditions": "30 µM compound reacted with 100 uM DPPH in ethanol for 30 min"}, "[9]": {"conditions": "300 µM compound reacted with 100 uM DPPH in ethanol for 30 min"}}}
{"smiles": "Nc1ccc(O)c(C(=O)O)c1", "note": "[AS, 5-amino salicylic acid]", "values": [{"measurement": "effect on neuronal death after exposure to Zn^2+", "setting": "[1]; 10 - 300 µM compound during and post Zn^2+ treatment, 300 µM Zn^2+ for 30 min, in words", "result": "not reduced"}, {"measurement": "effect on NMDA-induced neuronal death", "setting": "[2]; 10 - 300 µM compound, 300 µM NMDA for 10 min, in words", "result": "did not attenuate"}, {"measurement": "effect on free radical neurotoxicity following exposure to Fe^2+", "setting": "[3]; 10 - 100 µM compound, 24 hr-exposure to 50 µM Fe^2+, in words", "result": "dose-dependently prevented"}]}
{"smiles": "O=C(O)c1cc(NCc2ccc(Cl)cc2)ccc1O", "note": "[CBAS, 5-(4-chlorobenzyl)aminosalicylic acid]", "values": [{"measurement": "neuroprotective effect against Zn^2+ neurotoxicity relative to BAS", "setting": "[1]", "result": "did not reduce neuroprotective effects of BAS"}, {"measurement": "neuroprotective effect against NMDA neurotoxicity relative to BAS", "setting": "[2]", "result": "did not reduce neuroprotective effects of BAS"}, {"measurement": "prevention of free radical neurotoxicity relative to BAS", "setting": "[3]", "result": "more potent than BAS"}]}
{"smiles": "CCOC(=O)c1cc(NCc2ccc([N+](=O)[O-])cc2)ccc1O", "note": "[NAHE, 5-(4-nitrobenzyl)amino-2-hydroxy ethylbenzoate]", "values": [{"measurement": "effect on NMDA neurotoxicity", "setting": "[2]; [5]", "result": "attenuated"}, {"measurement": "effect on Fe^2+-induced free radical neurotoxicity", "setting": "[3]; in words", "result": "blocked"}]}
{"smiles": "O=C(Nc1ccc(O)c(C(=O)O)c1)c1ccc([N+](=O)[O-])cc1", "note": "[NBAA, 5-(4-nitrobenzoyl)aminosalicylic acid]", "values": [{"measurement": "effect on NMDA neurotoxicity", "setting": "[2]; 30 µM compound, 300 µM NMDA for 10 min, in words", "result": "significantly attenuated"}, {"measurement": "change of protective effect against NMDA with higher doses", "setting": "[2]; above 30 µM up to 300 µM, in words", "result": "not further increased"}, {"measurement": "protection against free radical neurotoxicity relative to NBAS", "setting": "[3]", "result": "weaker than NBAS"}, {"measurement": "A517nm", "setting": "[4]; [6]", "result": "0.42 ± 0.22"}]}
{"smiles": "O=C(O)c1cc(NCc2ccc([N+](=O)[O-])cc2)ccc1O", "note": "[NBAS, 5-(4-nitrobenzyl)aminosalicylic acid]", "values": [{"measurement": "neuroprotective effect against Zn^2+ neurotoxicity relative to BAS", "setting": "[1]", "result": "did not reduce neuroprotective effects of BAS"}, {"measurement": "neuroprotective effect against NMDA neurotoxicity relative to BAS", "setting": "[2]", "result": "did not reduce neuroprotective effects of BAS"}, {"measurement": "prevention of free radical neurotoxicity relative to BAS", "setting": "[3]", "result": "more potent than BAS"}, {"measurement": "A517nm", "setting": "[4]; [7]", "result": "0.37±0.1"}, {"measurement": "A517nm", "setting": "[4]; [8]", "result": "0.04 ± 0.01"}, {"measurement": "A517nm", "setting": "[4]; [6]", "result": "0.04±0.00"}, {"measurement": "A517nm", "setting": "[4]; [9]", "result": "0.04±0.00"}]}
{"smiles": "O=C(O)c1cc(NS(=O)(=O)c2ccc([N+](=O)[O-])cc2)ccc1O", "note": "[NBSAA, 5-(4-nitrobenzenesulfonyl)aminosalicylic acid]", "values": [{"measurement": "effect on NMDA neurotoxicity", "setting": "[2]; [5]", "result": "markedly reduced"}, {"measurement": "effect on NMDA neurotoxicity", "setting": "[2]; 30 - 300 µM compound, 300 µM NMDA for 10 min, in words", "result": "attenuated NMDA neurotoxicity in a dose-dependent manner"}, {"measurement": "protection against free radical neurotoxicity relative to NBAS", "setting": "[3]", "result": "weaker than NBAS"}, {"measurement": "A517nm", "setting": "[4]; [6]", "result": "0.15 ± 0.05"}]}
{"smiles": "CCOC(=O)c1cc(N(Cc2ccc([N+](=O)[O-])cc2)C(C)=O)ccc1OC(C)=O", "note": "[NNAAE, 5-(4-nitrobenzyl)-N-acetylamino-2-acetoxy ethylbenzoate]", "values": [{"measurement": "effect on NMDA neurotoxicity", "setting": "[2]; [5]", "result": "attenuated"}, {"measurement": "effect on Fe^2+-induced free radical neurotoxicity", "setting": "[3]; in words", "result": "blocked"}]}
{"smiles": "CCOC(=O)c1cc(N(Cc2ccc([N+](=O)[O-])cc2)C(C)=O)ccc1O", "note": "[NNAHE, 5-(4-nitrobenzyl)-N-acetylamino-2-hydroxy ethylbenzoate]", "values": [{"measurement": "effect on NMDA neurotoxicity", "setting": "[2]; [5]", "result": "attenuated"}, {"measurement": "effect on Fe^2+-induced free radical neurotoxicity", "setting": "[3]; in words", "result": "blocked"}]}
{"smiles": "O=C(O)c1cc(NCCc2ccc([N+](=O)[O-])cc2)ccc1O", "note": "[NPAA, 5-[2-(4-nitrophenyl)-ethyl]aminosalicylic acid]", "values": [{"measurement": "effect on NMDA neurotoxicity", "setting": "[2]; [5]", "result": "slightly reduced"}, {"measurement": "effect on Fe^2+-induced neuronal death", "setting": "[3]; in words", "result": "complete blockade"}, {"measurement": "protection against free radical neurotoxicity relative to NBAS", "setting": "[3]", "result": "more effective than NBAS"}, {"measurement": "A517nm", "setting": "[4]; [6]", "result": "0.09 ± 0.01"}]}
{"smiles": "O=C(O)c1cc(NCCCc2ccc([N+](=O)[O-])cc2)ccc1O", "note": "[NPPAA, 5-[3-(4-nitrophenyl)-n-propyl]aminosalicylic acid]", "values": [{"measurement": "effect on NMDA neurotoxicity", "setting": "[2]; [5]", "result": "slightly reduced"}, {"measurement": "effect on Fe^2+-induced neuronal death", "setting": "[3]; in words", "result": "complete blockade"}, {"measurement": "protection against free radical neurotoxicity relative to NBAS", "setting": "[3]", "result": "more effective than NBAS"}, {"measurement": "A517nm", "setting": "[4]; [6]", "result": "0.09 ± 0.02"}]}
{"smiles": "O=C(O)c1cc(NCc2c(F)c(F)c(F)c(F)c2F)ccc1O", "note": "[PBAS, 5-(pentafluorobenzyl)aminosalicylic acid]", "values": [{"measurement": "inhibition at 300 µM", "setting": "[2]; Mus musculus, 300 µM compound, 300 µM NMDA for 10 min, LDH 24 hr later, read-out: reduction of NMDA-induced neuronal death", "result": "~65", "unit": "%"}]}
{"smiles": "O=C(O)c1cc(NCc2ccc(C(F)(F)F)cc2)ccc1O", "note": "[TBAS, 5-(4-trifluoromethylbenzyl)aminosalicylic acid]", "values": [{"measurement": "neuroprotective effect against Zn^2+ neurotoxicity relative to BAS", "setting": "[1]", "result": "did not reduce neuroprotective effects of BAS"}, {"measurement": "neuroprotective effect against NMDA neurotoxicity relative to BAS", "setting": "[2]", "result": "did not reduce neuroprotective effects of BAS"}, {"measurement": "prevention of free radical neurotoxicity relative to BAS", "setting": "[3]", "result": "more potent than BAS"}]}
{"smiles": "Cc1c(C)c2c(c(C)c1O)CCC(C)(C(=O)O)O2", "note": "(centres unmarked) [Trolox, trolox]", "values": [{"measurement": "A517nm", "setting": "[4]; 3 µM compound reacted with 100 uM DPPH in ethanol for 30 min", "result": "1.08±0.1"}, {"measurement": "A517nm", "setting": "[4]; [7]", "result": "0.89±0.08"}, {"measurement": "A517nm", "setting": "[4]; [8]", "result": "0.39±0.06"}, {"measurement": "A517nm", "setting": "[4]; [6]", "result": "0.05±0.01"}, {"measurement": "A517nm", "setting": "[4]; [9]", "result": "0.03±0.01"}]}
